{"source": "patent US20100016213A1", "about": "“USE OF A DITERPENOID COMPOUND FOR TREATING DIABETES” (National Taiwan University, priority 2008, published 2010)", "assay_type_in_all_cases": "in vivo", "key": {"[1]": {"system": "liver phosphoenolpyruvate carboxykinase (PEPCK)", "assay": "Liver PEPCK levels by western blot in STZ-induced mice", "settings": "borapetoside C 5.0 mg/kg, twice per day for 7 days, insulin dose not given", "experimental": "To characterize the effect of borapetoside C on liver glucose utilization, levels of liver phosphoenolpyruvate carboxykinase (PEPCK) were examined by western blot analysis in STZ-induced mice treated with borapetoside C (5.0 mg/kg, twice per day for 7 days), insulin, or a vehicle control."}, "normal mice [2]": {"system": "normal mice", "assay": "Plasma insulin levels before and after treatment (Insulin ELISA), normal mice", "settings": "for Plasma insulin, Pre-treatment: before treatment; for Plasma insulin, post-treatment: one hour after treatment", "experimental": "Normal mice, STZ-induced diabetic mice, and diet-induced diabetic mice were administered with a vehicle control, borapetoside A (5.0 mg/kg), borapetoside C (at various doses), glibenclamide (5.0 mg/kg) or metformin (500 mg/kg) by intraperitoneal injection. These mice were examined for their blood insulin levels before and one hour after treatment, using the Insulin(Rat) ELISA kit obtained from Penisula Lab. Inc., San Carlos, Calif., USA."}, "normal mice [3]": {"system": "normal mice", "assay": "Insulin sensitivity: plasma glucose reduction with insulin plus borapetoside C or vehicle, normal mice", "settings": "thirty minutes after insulin", "experimental": "(§1) The effect of borapetoside C on insulin sensitivity was tested following the method described in Liu, et al., Clinical and Experimental Pharmacology and Physiology 2005; 32: 649-654. Normal mice (n=6), STZ-induced diabetic mice (n=5), and DIO-induced diabetic mice (n=7) were treated with insulin at various doses (i.e., 0.1 IU/kg, 0.5 IU/kg, and 1.0 IU/kg) together with either borapetoside C (0.1 mg/kg) or a vehicle control. Their plasma glucose levels were examined before and thirty minutes after insulin administration. The activity of lowering plasma glucose levels (AL) was calculated following the formula described in Example 2 above."}, "normal mice [4]": {"system": "normal mice", "assay": "Lowering plasma glucose levels via oral administration, normal mice", "settings": "oral 10.0 mg/kg, sixty minutes after treatment, mean ± SEM, six animals", "experimental": "(§2) Normal, STZ-induced diabetic mice, and diet-induced diabetic mice were administered orally with 10.0 mg/kg borapetoside C, glibenclamide or metformin as a positive control, and a vehicle control. The plasma glucose levels of the treated mice were determined before and sixty minutes after treatment and the results thus obtained were shown in Table 3 below."}, "[5]": {"system": "DIO-induced diabetic mice", "assay": "Lowering plasma glucose level, intraperitoneal injection, diet-induced obesity diabetic mice (type II diabetes model)", "settings": "for plasma glucose level one hour after treatment: basal (untreated) 174.6±7.7 mg/dL", "experimental": "Normal and diet-induced obesity diabetic mice (“DIO-induced diabetic mice) were administered with borapetoside A (5.0 mg/kg), borapetoside C (5.0 mg/kg), glibenclamide (5.0 mg/kg), metformin (500.0 mg/kg), or a vehicle control via intraperitoneal injection. DIO-induced diabetic mice are a well-known mouse model of type II diabetes (non-insulin dependent). See Liu et al., J Mol. Endocrinol. 2008.\nThe plasma glucose levels of the treated mice were determined before and one hour after administration. The activities of these compounds for lowering plasma glucose levels were calculated as described above.\nBorapetoside C was administered to DIO-induced diabetic mice at 0.1, 1.0, 3.0, and 5.0 mg/kg and the plasma glucose levels were examined before and after administration. The basal plasma glucose concentration in diet-induced diabetic mice (untreated) was 174.6±7.7 mg/dL. One hour after treatment, the plasma glucose levels in mice treated with vehicle control, 0.1 mg/kg borapetoside C, 1.0 mg/kg borapetoside C, 3.0 mg/kg borapetoside C, and 5.0 mg/kg borapetoside C were 172.5±10.9 mg/dL, 170.5±6.8 mg/dL, 127.9±6.0 mg/dL, 121.3±4.3 mg/dL and 119.9±4.6 mg/dL, respectively."}, "[6]": {"system": "DIO-induced diabetic mice(NIDDM)", "assay": "Glycogen content in skeletal muscle, DIO-induced diabetic mice", "settings": "5 mg/kg i.p., 30 minutes after injection", "experimental": "Normal, STZ-induced diabetic, and DIO-induced diabetic mice were intraeritoneally injected with borapetoside C (5 mg/kg) and Actrapid (0.5 IU/kg; a short-acting insulin provided by Novo Nordisk) or metformin (500 mg/kg). Their glycogen contents in skeletal muscle were determined 30 minutes after injections."}, "[7]": {"system": "STZ-induced diabetic mice", "assay": "Insulin sensitivity: plasma glucose reduction with insulin plus borapetoside C or vehicle, STZ-induced diabetic mice", "settings": "thirty minutes after insulin", "experimental": "as §1"}, "[8]": {"system": "Diet-induced diabetic mice (NIDDM)", "assay": "Lowering plasma glucose levels via oral administration, diet-induced diabetic mice", "settings": "oral 10.0 mg/kg, sixty minutes after treatment, mean ± SEM, six animals", "experimental": "as §2"}, "[9]": {"settings": "Borapetoside C 0.1 mg/kg together with Insulin 0.1 IU/kg"}, "[10]": {"settings": "Borapetoside C 0.1 mg/kg together with Insulin 0.5 IU/kg"}, "[11]": {"settings": "Borapetoside C 0.1 mg/kg together with Insulin 1.0 IU/kg"}}}
{"smiles": "COC(=O)C1=CCC[C@H]2[C@]3(C)C[C@@H](c4ccoc4)OC(=O)[C@@H]3C[C@@H](O[C@@H]3O[C@H](CO)[C@@H](O)[C@H](O)[C@H]3O)[C@@]12C", "note": "[borapetoside C]", "values": [{"measurement": "liver PEPCK levels versus vehicle control-treated mice (western blot)", "setting": "[1]", "value": "much lower"}, {"measurement": "Plasma insulin, Pre-treatment", "setting": "normal mice [2]; 0.1 mg/kg i.p.", "value": "54.0 ± 3.4", "unit": "pmol/L"}, {"measurement": "Plasma insulin, post-treatment", "setting": "normal mice [2]; 0.1 mg/kg i.p.", "value": "71.5 ± 5.3", "unit": "pmol/L"}, {"measurement": "Plasma insulin, Pre-treatment", "setting": "normal mice [2]; 0.5 mg/kg i.p.", "value": "52.2 ± 3.0", "unit": "pmol/L"}, {"measurement": "Plasma insulin, post-treatment", "setting": "normal mice [2]; 0.5 mg/kg i.p.", "value": "65.7 ± 9.8", "unit": "pmol/L"}, {"measurement": "Plasma insulin, Pre-treatment", "setting": "normal mice [2]; 1.0 mg/kg i.p.", "value": "58.9 ± 3.5", "unit": "pmol/L"}, {"measurement": "Plasma insulin, post-treatment", "setting": "normal mice [2]; 1.0 mg/kg i.p.", "value": "65.0 ± 6.0", "unit": "pmol/L"}, {"measurement": "Plasma insulin, Pre-treatment", "setting": "normal mice [2]; 3.0 mg/kg i.p.", "value": "52.0 ± 3.7", "unit": "pmol/L"}, {"measurement": "Plasma insulin, post-treatment", "setting": "normal mice [2]; 3.0 mg/kg i.p.", "value": "142.6 ± 29.2", "unit": "pmol/L"}, {"measurement": "Plasma insulin, Pre-treatment", "setting": "normal mice [2]; 5.0 mg/kg i.p.", "value": "56.6 ± 2.3", "unit": "pmol/L"}, {"measurement": "Plasma insulin, post-treatment", "setting": "normal mice [2]; 5.0 mg/kg i.p.", "value": "139.4 ± 25.5", "unit": "pmol/L"}, {"measurement": "AL (%)", "setting": "normal mice [3]; [9]", "value": "17.2 ± 1.2", "unit": "%"}, {"measurement": "AL (%)", "setting": "normal mice [3]; [10]", "value": "45.7 ± 3.7", "unit": "%"}, {"measurement": "AL (%)", "setting": "normal mice [3]; [11]", "value": "64.7 ± 1.8", "unit": "%"}, {"measurement": "Activity of lowing plasma glucose levels (%)", "setting": "normal mice [4]", "value": "23.1 ± 2.8", "unit": "%"}, {"measurement": "plasma glucose level one hour after treatment", "setting": "[5]; 0.1 mg/kg", "value": "170.5 ± 6.8", "unit": "mg/dL"}, {"measurement": "plasma glucose level one hour after treatment", "setting": "[5]; 1.0 mg/kg", "value": "127.9 ± 6.0", "unit": "mg/dL"}, {"measurement": "plasma glucose level one hour after treatment", "setting": "[5]; 3.0 mg/kg", "value": "121.3 ± 4.3", "unit": "mg/dL"}, {"measurement": "AL (activity of lowering plasma glucose levels)", "setting": "[5]; 5.0 mg/kg intraperitoneal injection, one hour after administration", "value": "29.4±1.0", "unit": "%"}, {"measurement": "plasma glucose level one hour after treatment", "setting": "[5]; 5.0 mg/kg", "value": "119.9 ± 4.6", "unit": "mg/dL"}, {"measurement": "Glycogen content (μmol/g wet weight)", "setting": "[6]", "value": "23.3 ± 0.4", "unit": "μmol/g wet weight"}, {"measurement": "AL (%)", "setting": "[7]; [9]", "value": "10.5 ± 1.4", "unit": "%"}, {"measurement": "AL (%)", "setting": "[7]; [10]", "value": "18.9 ± 2.1", "unit": "%"}, {"measurement": "AL (%)", "setting": "[7]; [11]", "value": "32.2 ± 2.1", "unit": "%"}, {"measurement": "Activity of lowing plasma glucose levels (%)", "setting": "[8]", "value": "28.2 ± 3.1", "unit": "%"}]}
